Reference: patent US4654362A, “Derivatives of 2,2'-iminobisethanol” (Janssen Pharmaceutica, N.V., priority 1984, dated 1987)

Key:
guinea pig atrium (β1) = target: T1, guinea pig atrium (β1) (Cavia porcellus, UniProt H0W3H1); test: Guinea-pig right atrium test: inhibition of isoprenaline-induced increase in heart rate (β1-adrenergic receptor blocking activity, in vitro); conditions: isolated right atrium, 30 min incubation, 37.5° C., estimated graphically, read-out: ED50 value on guinea pig atrium (β1) (converted)
T1 construct: Spontaneously beating right atria were dissected from guinea-pigs; from tissue; host or cells: guinea-pig right atrium (strip including the sinoatrial node)
T1 sequence (H0W3H1 1-470): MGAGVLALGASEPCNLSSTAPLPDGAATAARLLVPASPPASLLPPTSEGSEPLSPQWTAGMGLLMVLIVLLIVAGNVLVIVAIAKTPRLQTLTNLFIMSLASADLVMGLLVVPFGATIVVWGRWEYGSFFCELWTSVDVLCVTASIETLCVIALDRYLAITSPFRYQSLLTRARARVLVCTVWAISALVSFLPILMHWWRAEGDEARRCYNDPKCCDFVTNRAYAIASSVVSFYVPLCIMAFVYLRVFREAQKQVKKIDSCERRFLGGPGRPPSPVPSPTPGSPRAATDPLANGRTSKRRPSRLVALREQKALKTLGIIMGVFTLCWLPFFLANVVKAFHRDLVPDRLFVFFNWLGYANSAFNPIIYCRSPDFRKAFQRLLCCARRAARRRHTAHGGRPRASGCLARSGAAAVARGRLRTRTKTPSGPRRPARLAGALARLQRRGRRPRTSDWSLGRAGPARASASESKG
Protocol: 1. Guinea-pig right atrium (β1)
Spontaneously beating right atria were dissected from guinea-pigs (400±50 g). A triangular strip of atrium, including the sinoatrial node was excised together with the anterior vena cava.
The vena was fixed to a glass muscle holder and the opposite atrial muscle was connected to a Grass isometric transducer. […] Heart rate and contractile force were recorded by means of a Grass FT03C isometric transducer. Output signals amplified by an isometric transducer amplifier (J.S.I.) via a cardiotachometer (J.S.I.) were recorded on Honeywell XYY' recorder.
After washing out isoprenaline a stabilisation period of 15 min. was allowed. A drug was then added to the bath fluid for 30 min. During this incubation period possible direct chronotropic and inotropic effects of the drug were determined. Following this, a second dose-response curve for isoprenaline was produced by infusion during 10 minutes (b). The slope of the increase in rate was graphically estimated for each period of isoprenaline addition and the ratio b/a was calculated. Based on solvent experiments a ratio of less than 0.70 was considered as the criterion of inhibitory activity. ED50 -values were estimated graphically.

guinea pig trachea (β2) = target: T2, guinea pig trachea (β2) (Cavia porcellus, UniProt Q8K4Z4); test: Guinea-pig tracheal ring test: inhibition of isoprenaline-induced relaxation (β2-adrenergic receptor blocking activity, in vitro); conditions: for β2 /β1: ratio of ED50 trachea (β2) to ED50 right atrium (β1), index of cardioselectivity; for IC50: tracheal ring, methacholine 1 μg/ml, isoprenaline 0.08 μg/ml, 30 min, 35° C., probit analysis, read-out: ED50 value on guinea pig trachea (β2) (converted)
T2 construct: The trachea was dissected from guinea-pigs; from tissue; host or cells: guinea-pig tracheal rings (tracheal smooth muscle)
T2 sequence (Q8K4Z4 whole entry): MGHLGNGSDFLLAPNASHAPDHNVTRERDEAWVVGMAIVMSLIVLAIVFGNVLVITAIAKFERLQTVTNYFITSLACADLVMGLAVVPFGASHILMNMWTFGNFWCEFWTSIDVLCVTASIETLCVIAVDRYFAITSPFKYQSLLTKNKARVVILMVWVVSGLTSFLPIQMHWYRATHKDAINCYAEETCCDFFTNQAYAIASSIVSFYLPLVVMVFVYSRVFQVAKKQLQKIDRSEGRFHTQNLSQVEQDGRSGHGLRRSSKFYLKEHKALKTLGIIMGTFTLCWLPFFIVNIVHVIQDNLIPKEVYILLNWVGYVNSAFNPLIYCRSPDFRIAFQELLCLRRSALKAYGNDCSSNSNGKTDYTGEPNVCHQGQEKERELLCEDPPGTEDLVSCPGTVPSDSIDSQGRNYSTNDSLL
From the text: 2. Guinea-pig tracheal ring (β2)
The trachea was dissected from guinea-pigs (400±50 g). Four rings, approximately 8 mm. in width, were then cut from each trachea. Cartilaginous parts of the tracheal ring were mounted horizontally between two metal rods, one of which was attached to a glass organholder, the other rod being connected to a Grass isometric transducer. Using such a technique the tracheal smooth muscle is suspended optimally i.e. midway between the cartilaginous parts. […] The preparation was maintained at tension of 1.5 g throughout the experiment. Tension changes recorded were thus an expression of contraction or relaxation. After a stabilisation period of 30 min. contraction was induced by adding methacholine (1 μg/ml) to the bath for a 10 min. period. […] This procedure was repeated twice before adding the drug (t-33'; t-19') and once 30 min. after addition of the drug. During the incubation period any direct effects of the drug were measured.
The ratio of the ED50 -values obtained in respectively the tracheal ring test (β2) and in the right atrium test (β1) may be considered as an index of the cardioselectivity of the test drug.

Row | SMILES | IC50 (guinea pig atrium (β1)) | β2 /β1 (guinea pig trachea (β2)) | IC50 (guinea pig trachea (β2))
1 | Oc1ccc2c(c1)CCC(C(O)CNCC(O)C1CCc3cc(O)ccc3O1)O2 (stereo not drawn) [Compound 133] | 1.57 nM |  | 
2 | Cc1ccc2c(c1)CCC(C(O)CNCC(O)C1CCc3cc(C)ccc3O1)O2 (stereo not drawn) [Compound 113] | 6.29 nM |  | 
3 | Cc1ccc2c(c1)OC(C(O)CNCC(O)C1CCc3ccccc3O1)CC2 (stereo not drawn) [Compound 97] | 1.85 nM | 7,042 | 13 µM
4 | Cc1cc(C)c2c(c1)OC(C(O)CNCC(O)C1CCc3ccccc3O1)CC2 (stereo not drawn) [Compound 104] | 3.27 nM | > 1923 | > 6.29 µM
5 | Cc1ccc2c(c1)OC(C(O)CNCC(O)C1CCc3ccccc3O1)CC2 (stereo not drawn) [Compound 99] | 1.64 nM | ≥ 15,873 | ≥ 26.1 µM
6 | OC(CNCC(O)C1CCc2ccccc2O1)C1CCc2ccccc2O1 (stereo not drawn) [Compound 74, (A^+ A^+)-α,α'-[iminobis(methylene)]bis[3,4-dihydro-2H-1-benzopyran-2-methanol]] | 0.65 nM | 12,500 | 8.12 µM
7 | Cc1cc(C)c2c(c1)OC(C(O)CNCC(O)C1CCc3ccccc3O1)CC2 (stereo not drawn) [Compound 106] |  | > 1000 | 
8 | CC(=O)Nc1ccc2c(c1)CCC(C(O)CNCC(O)C1CCc3ccccc3O1)O2 (stereo not drawn) [Compound 94] | ≥ 5.86 nM |  | 
9 | OC(CNCC(O)C1CCc2cc(Br)ccc2O1)C1CCc2ccccc2O1 (stereo not drawn) [Compound 63] | < 89.2 nM |  | 
10 | OC(CNCC(O)C1CCc2ccccc2O1)C1CCc2ccccc2O1 (stereo not drawn) [Compound 81] | 0.433 nM | 3,938 | 1.71 µM
11 | Cc1ccc2c(c1)OC(C(O)CNCC(O)C1CCc3ccccc3O1)CC2 (stereo not drawn) [Compound 98] | 6.52 nM | 2,400 | 15.6 µM
12 | OC(CNCC(O)C1CCc2ccccc2O1)C1CCc2ccccc2O1 (stereo not drawn) [Compound 82] | 6.77 nM | > 1,000 | > 6.77 µM
13 | OC(CNCC(O)C1CCc2ccccc2O1)C1CCc2ccccc2O1 (stereo not drawn) [Compound 138, (A,A)-α-[[[2-(3,4-dihydro-2H-1-benzopyran-2-yl)-2-hydroxyethyl]amino]methyl]-3,4-dihydro-2H-1-benzopyran-2-methanol ethanedioate (1:1)] | 27.1 nM | > 1000 | > 27.1 µM
14 | OC(CNCC(O)C1CCc2ccccc2O1)C1CCc2ccccc2O1 (stereo not drawn) [Compound 77] | 1.46 nM | 4,074 | 
15 | Cc1ccc2c(c1)CCC(C(O)CNCC(O)C1CCc3ccccc3O1)O2 (stereo not drawn) [Compound 89] | 1.12 nM | 20,698 | 23.2 µM
16 | OC(CNCC(O)C1CCc2cc(F)ccc2O1)C1CCc2cc(F)ccc2O1 (stereo not drawn) [Compound 84] |  |  | > 24.7 µM
17 | Oc1ccc2c(c1)CCC(C(O)CNCC(O)C1CCc3ccccc3O1)O2 (stereo not drawn) [Compound 130] | 0.804 nM | 1000 | 0.804 µM
18 | CS(=O)(=O)Nc1ccc2c(c1)CCC(C(O)CNCC(O)C1CCc3ccccc3O1)O2 (stereo not drawn) [Compound 135] | 136 nM |  | 

Row | SMILES | IC50 (guinea pig atrium (β1)) | β2 /β1 (guinea pig trachea (β2)) | IC50 (guinea pig trachea (β2))
19 | Cc1cc(C)c2c(c1)OC(C(O)CNCC(O)C1CCc3ccccc3O1)CC2 (stereo not drawn) [Compound 103] | 6.29 nM | > 4000 | > 25.2 µM
20 | OC(CNCC(O)C1CCc2ccccc2O1)C1CCc2ccccc2O1 (stereo not drawn) [Compound 83] | 1.25 nM | > 5,435 | 
21 | CC(=O)Nc1ccc2c(c1)CCC(C(O)CNCC(O)C1CCc3ccccc3O1)O2 (stereo not drawn) [Compound 96] | 3.05 nM | 108 | 0.328 µM
22 | Cc1ccc2c(c1)CCC(C(O)CNCC(O)C1CCc3cc(C)ccc3O1)O2 (stereo not drawn) [Compound 85] | 0.579 nM | 5,652 | 3.27 µM
23 | Cc1ccc2c(c1)CCC(C(O)CNCC(O)C1CCc3ccccc3O1)O2 (stereo not drawn) [Compound 93] | 0.417 nM | 13,750 | 5.74 µM
24 | OC(CNCC(O)C1CCc2ccccc2O1)C1CCc2ccccc2O1 (stereo not drawn) [Compound 75] | 3.52 nM | 2,154 | 7.58 µM
25 | CC(=O)Nc1ccc2c(c1)CCC(C(O)CNCC(O)C1CCc3ccccc3O1)O2 (stereo not drawn) [Compound 95] | 0.727 nM | 129 | 0.0938 µM
26 | OC(CNCC(O)C1CCc2cc(F)ccc2O1)C1CCc2ccccc2O1 (stereo not drawn) [Compound 91] | 2.06 nM | 6,250 | 12.9 µM
27 | OC(CNCC(O)C1CCc2ccccc2O1)C1CCc2ccccc2O1 (stereo not drawn) [Compound 88] |  |  | ≥ 27.1 µM
28 | CC(O)(CNCC(O)C1CCc2ccccc2O1)C1CCc2ccccc2O1 (stereo not drawn) [Compound 92] | 1.04 nM | 12,500 | 13 µM
29 | CC1(C(O)CNCC(O)C2CCc3ccccc3O2)CCc2ccccc2O1 (stereo not drawn) [Compound 140, (A,B)-α-[[[2-(3,4-dihydro-2H-1-benzopyran-2-yl)-2-hydroxyethyl]amino]methyl]-3,4-dihydro-2-methyl-2H-1-benzopyran-2-methanol ethanedioate (1:1). monohydrate] | ≤ 6.52 nM |  | 
30 | Cc1ccc2c(c1)CCC(C(O)CNCC(O)C1CCc3ccccc3O1)O2 (stereo not drawn) [Compound 90] | 1.04 nM | ≥ 25,000 | ≥ 26.1 µM
31 | OC(CNCC(O)C1CCc2ccc3c(c2O1)CCCC3)C1CCc2ccccc2O1 (stereo not drawn) [Compound 110] | 5.9 nM |  | 
32 | OC(CNCC(O)C1CCc2cc(Br)ccc2O1)C1CCc2cc(Br)ccc2O1 (stereo not drawn) [Compound 10, (B,B)-α,α'-[iminobismethylene]bis[6-bromo-3,4-dihydro-2H-1-benzopyran-2-methanol]] | 75.9 nM |  | 
33 | CC(O)(CNCC(C)(O)C1CCc2ccccc2O1)C1CCc2ccccc2O1 (stereo not drawn) [Compound 86] | 3.02 nM | 4,166 | 12.6 µM
34 | N#Cc1ccc2c(c1)CCC(C(O)CNCC(O)C1CCc3ccccc3O1)O2 (stereo not drawn) [Compound 51] | 6.34 nM | > 252 | > 1.6 µM
35 | OC(CNCC(O)C1CCc2ccccc2O1)C1CCc2ccccc2O1 (stereo not drawn) [Compound 76] | 2.3 nM | 2,614 | 5.95 µM
36 | OC(CNCC(O)C1CCc2ccccc2O1)C1CCc2ccccc2O1 (stereo not drawn) [Compound 79] | 0.514 nM | 13,157 | 6.77 µM
